This assay relates to Clone20 osteoblast Shn3 3'UTR firefly luciferase, 24 h. As to the kind of experiment: Shn3 3'UTR reporter inhibitors, dose response, cell-based, Clone20 osteoblasts, luminescence, dry powder, set 2 (AID 743417).

Each structure is given as a SMILES string. Inconclusive results are not listed. Active and inactive are the calls of the source.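 How the source made its calls: active means compounds lowering the luciferase signal with a fitted half-maximal dose at most twice their top valid dose (cut at about 30 µM in these data); inconclusive means flat fits with moderate signal loss, or poor fits; inactive means the rest.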 *1 amine or outer side, *2 acyl side, *3 side chain or, on linkers, in order; H or OH if unused. Where a SMILES comes first, the peptide text is derived from it. Bridges are numbered along the chain shown (N, C = ends). [ ]: non-standard residue; d: D form. ξ: configuration not given here. X1 = CC[C@H](CCC[C@@H](O)[C@@H](C)C(=O)O[C@H](C)[C@@H](C)C/C=C(C)/C(=C\C(=O)[*:1])OC)O[*:2]; NMeξIle = CC[C@H](C)C(NC)C(=O)O; NMeV = CN[C@H](C(=O)O)C(C)C; NMeS = CN[C@@H](CO)C(=O)O Some results are limits rather than exact numbers.

For `CCc1ccc(CN(C)C(=O)c2cc(COc3cccc4cnccc34)on2)cc1`, the AC50 (usually the concentration at which the activity in the assay is half-maximal) is 1.92 µM.

Regarding `c1coc(CN(Cc2ccco2)c2ncnc3c2oc2ccccc23)c1`, the AC50 is 5.45 µM.

Take `C[C@@H]1C[C@@H]2O[C@H]2/C=C\C=C\C(=O)Cc2c(Cl)c(O)cc(O)c2C(=O)O1`: the AC50 was 6.4 µM.

Turning to `CCSc1nnc(NC(=O)c2nc(S(=O)(=O)Cc3ccc(F)cc3)ncc2Cl)s1`, the AC50 is 4.96 µM.

As to `COc1cc(N2C(=O)C=CC2=O)ccc1N1C(=O)C=CC1=O`, the concentration at half-maximal activity (AC50) was 2.32 µM.

As for `COc1cccc(OCCn2cc(C(C)=O)c3ccccc32)c1`, the AC50 is 1.85 µM.

Regarding `O=C(/C=C/c1ccc(O)c(O)c1)OCCc1ccccc1`, the half-maximal activity concentration (AC50) is 0.877 µM.

Take `CCCC(=O)NC(c1ccc(C(C)C)cc1)c1ccc2cccnc2c1O` (centres undefined): the AC50 is 0.47 µM.

In the case of `CCOC(=O)Oc1c(OC)cc(C(=O)O[C@@H]2C[C@@H]3CN4CCc5c([nH]c6cc(OC)ccc56)[C@H]4C[C@@H]3[C@H](C(=O)OC)[C@H]2OC)cc1OC`, the AC50 is 10.7 µM.

With `CC1CCCC(NC(=O)c2cccc(S(=O)(=O)N3CCN(c4ccccc4)CC3)c2)C1C` (centres undefined), the AC50 was 3.14 µM.

On to `CCn1c2ccccc2c2cc(CNCc3ccc(OC)cc3OC)ccc21`, for which the AC50 was 14.7 µM.

For the compound `COc1ccc(C(=O)Nc2nc3ccccc3s2)c(OC)c1`, the AC50 is 0.523 µM.

Turning to `CC(C)NC(=O)C1CCN(C(=O)c2cc3sccc3n2Cc2ccc(F)cc2)CC1`, the AC50 is 5.05 µM.

Take `COc1ccc(OC)c(C(c2nnnn2Cc2ccccc2)N2CCN(C3CCCCC3)CC2)c1` (centres undefined): the AC50 was > 70 µM (inactive).

For `CS(=O)(=O)N1CCN(c2ccc(NC(=O)c3ccc([N+](=O)[O-])o3)cc2)CC1`, the half-maximal activity concentration (AC50) is 5.65 µM.

`Oc1ccc(CCNc2ncnc3ccc(Cl)cc23)cc1`: the AC50 was 0.551 µM.

Take `O=C(Nc1cccc(C(F)(F)F)c1)Nc1ccc(N2CCCC2)c(S(=O)(=O)Nc2ccccc2Cl)c1`: the AC50 is 4.42 µM.

On to `COc1ccccc1CNc1nc(Nc2cccc(-c3cnco3)c2)c2sccc2n1`, for which the AC50 was 5.61 µM.

Turning to `COc1cc(SC)ccc1C(=O)Nc1nc(C)cs1`, the AC50 was 7.09 µM.

Take `CCc1c(C)nc2cc(-c3ccc(OC)c(OC)c3)nn2c1NCC1CC1`: the AC50 is 5.11 µM.

As for `O=[N+]([O-])c1ccc(S(=O)(=O)c2ccccc2)nc1`, the AC50 is 1.74 µM.

Consider `CC[C@@H]1CCC[C@@H](O)[C@@H](C)C(=O)O[C@H](C)[C@@H](C)C/C=C(C)/C(OC)=C\C(=O)N(C)C([C@@H](C)CC)C(=O)N(C)[C@@H](C(C)C)C(=O)N(C)[C@@H](COC)C(=O)N2CCC[C@H]2C(=O)N(C)[C@@H](C(C)C)C(=O)N2CCC[C@H]2C(=O)O1` (some centres undefined) ([NMeξIle][NMeV][NMeS](Me)P[NMeV]P; linker N-C via X1), for which the AC50 was less than 0.26 µM.

Turning to `CCCCCCCCCCOC(=O)Cn1c(COc2ccc(OC)cc2)[n+](C)c2ccccc21`, the AC50 was 2.01 µM.

In the case of `Cc1cccc(-c2noc(CN(C(=O)C(c3ccccc3)c3ccccc3)C(C)C)n2)c1`, the AC50 is 6.27 µM.

For `COc1ccccc1NC(=O)c1nc(S(=O)(=O)Cc2ccccc2)ncc1Cl`, the AC50 was 0.492 µM.

Turning to `COc1ccc2c(c1OC)C(=O)OC2Nc1nc(-c2ccccc2)cs1` (centres undefined), the AC50 was 4.7 µM.

In the case of `CCC(NC(=O)Nc1nnc(C(F)(F)F)s1)(C(F)(F)F)C(F)(F)F`, the AC50 is 4.15 µM.

In the case of `O=C(CSc1nnc(-c2ccc(Cl)cc2Cl)n1C1CCCCC1)N1CCCC1`, the AC50 was > 70 µM (inactive).

For `Cc1ccccc1OCC(O)Cn1c(=N)n(Cc2ccccc2)c2ccccc21` (centres undefined), the AC50 was 2.25 µM.

As for `O=C(Nc1ccc(N2CCOCC2)c(Cl)c1)c1ccc([N+](=O)[O-])o1`, the AC50 was 6.23 µM.

With `COc1cc2ncnc(N[C@H](C)c3ccccc3)c2cc1OC`, the AC50 was 8.72 µM.

On to `OCCCNc1nccc(-c2cc(Nc3cccc(Cl)c3)ncn2)n1`, for which the AC50 was 2.61 µM.

Regarding `O=C(Nc1ccc(F)cc1)Nc1cc(OCC(F)(F)F)cc(OCC(F)(F)F)c1`, the AC50 is 2.46 µM.

For the compound `COc1cc2c(cc1OC)C1C(=O)c3ccc4c(c3OC1CO2)CC(C(C)C)O4` (centres undefined), the AC50 was less than 0.26 µM.

As for `COc1ccc(Nc2nc(N3CCCCC3)c3ccccc3n2)cc1`, the AC50 is 2.11 µM.

On to `CC(O)CC(=O)OC[C@]12CC[C@H]3[C@@](C)(CC[C@H]4C(C)(C)CCC[C@]34C)[C@@H]1CC(C1=CC(=O)OC1O)O2` (some centres undefined), for which the AC50 is 3.75 µM.

Regarding `C=C[C@]1(C)C=C2C(=O)[C@@]3(O)OC(=O)[C@@]4(CCCC(C)(C)[C@H]34)[C@@]2(O)CC1`, the AC50 was 4.98 µM.

On to `C[C@@H]1COC(=O)[C@@H](NC(=O)OCC2c3ccccc3-c3ccccc32)C/C=C\C[C@@H](CC(=O)N(CCO)Cc2ccccc2)C(=O)N1`, for which the AC50 is 1.89 µM.

As for `CN(C)CC(C(=O)Cc1ccccc1)c1ccccc1` (centres undefined), the AC50 was 7.81 µM.

For the compound `COc1ccc([C@@]23Oc4cc(OC)cc(OC)c4[C@]2(O)[C@H](O)[C@H](C(=O)N(C)C)[C@H]3c2ccccc2)cc1`, the AC50 is less than 0.26 µM.

`NC(=Nc1nc(-c2ccccn2)cc2ccccc12)c1ccccn1`: the AC50 was less than 0.26 µM.

As to `CN(c1cccc(NC(=O)CN(c2ccc(C34CC5CC(CC(C5)C3)C4)cc2)S(C)(=O)=O)c1)S(C)(=O)=O`, the AC50 was 7.58 µM.

In the case of `O=C(Nc1ccc([N+](=O)[O-])cc1)Nc1ccc(OC(F)F)c(Cl)c1`, the AC50 was 3.59 µM.

As to `C=C1C(=O)C23CCC4C(C)(C(=O)OC)CCCC4(C)C2CCC1(O)C3` (centres undefined), the AC50 was 0.976 µM.

As for `CC(=O)Nc1ccc(OCC(=O)Nc2ccc(Cl)c(S(=O)(=O)N3CCOCC3)c2)cc1`, the concentration at half-maximal activity (AC50) was 1.59 µM.

For `O=C(c1ccc(F)cc1)C(CN1CCOCC1)c1ccccc1` (centres undefined), the AC50 is 17.6 µM.

Turning to `CC(C)CC(NC(=O)c1ccc(Cl)cc1)C(=O)OCC(=O)c1ccc2c(c1)NC(=O)CO2` (centres undefined), the half-maximal activity concentration (AC50) is 4.01 µM.

Regarding `Cc1ccc2[nH]c3c(N4CCc5ccccc5C4)ncnc3c2c1`, the AC50 was 1.18 µM.

Turning to `O=C(Nc1ccc(F)cc1)c1nc(S(=O)(=O)Cc2ccccc2)ncc1Cl`, the AC50 was 3.38 µM.

`CC1=NNC(=O)/C1=C\c1cn(-c2ccccc2)nc1-c1ccccc1`: the AC50 is 8.42 µM.

As to `CCN1CCN(Cc2ccc(NC(=O)c3ccc(C)c(/C=C/c4cnc(Nc5cc(N6CCNCC6)nc(C)n5)cn4)c3)cc2C(F)(F)F)CC1`, the AC50 is 9.56 µM.

`CC(C)C[C@H]1CNC(=S)N1CC1CCN(CC2CCC(C(C)(C)C)CC2)CC1` (some centres undefined): the AC50 is 4.05 µM.

Take `Cc1ccc(C(=O)Nc2nc(-c3ccccn3)cs2)cc1S(=O)(=O)N1CCOCC1`: the half-maximal activity concentration (AC50) was 0.838 µM.

Consider `COC(=O)/C(=C1/Oc2cc(C)oc(=O)c2S1)C(F)(F)F`, for which the AC50 was 4.64 µM.

`OCCCNc1cc(-c2ccnc(Nc3cccc(Cl)c3)n2)ccn1`: the AC50 is less than 0.26 µM.

With `OC(c1cc(-c2cccc(Cl)c2)nc2ccccc12)C1CCCCN1` (centres undefined), the AC50 was 10.8 µM.

As to `COC(=O)c1ccc(CCc2cc(O)ccc2O)cc1`, the AC50 is 3.14 µM.

`CCOC(=O)c1cnc(-n2nc(C)cc2C)nc1NC1CCCCC1`: the AC50 is 3.01 µM.

For the compound `COc1cnc(-c2ccccn2)nc1NC(C)C`, the AC50 is 2.81 µM.

As to `Cc1ccc(S(=O)(=O)NCCc2cc3ccc(C)cc3[nH]c2=O)cc1`, the AC50 was > 70 µM (inactive).

As for `CCCS(=O)(=O)Nc1ccc(Nc2c3ccccc3nc3ccccc23)c(OC)c1`, the AC50 is 3.39 µM.

As to `O=C(Nc1ccccc1Cl)/C(Cl)=C(\Cl)S(=O)c1ccccc1` (centres undefined), the AC50 is 0.438 µM.

With `COCCn1c(C)cc(C2=NNC(=NC3CC3)SC2)c1C`, the AC50 was less than 0.26 µM.

Turning to `O=C(NNC(=O)c1cccc(S(=O)(=O)N2CCc3ccccc32)c1)c1ccccc1`, the AC50 was 1.52 µM.

For the compound `CCC(=O)NC(c1ccc(C)cc1)c1ccc2cccnc2c1O` (centres undefined), the AC50 is 0.704 µM.

Turning to `O=C(/C=C/c1ccc(F)cc1)NC(=S)NNC(=O)c1cnccn1`, the AC50 was 1.39 µM.

For `O=C1CCCN2N=C(SCC(=O)Nc3cccc(C(F)(F)F)c3)SC2=N1`, the AC50 is 4.37 µM.

For `COc1ccc(-n2ncc(Cl)c(Cl)c2=O)cc1`, the half-maximal activity concentration (AC50) is 3.36 µM.

As for `COc1ccc(C2/C=C\CN(C(=O)c3ccc(C)cc3)[C@H](Cc3ccccc3)C(=O)N2Cc2ccc(F)cc2)cc1` (some centres undefined), the AC50 is 0.772 µM.

Consider `CCc1nc(N2CCN(C(C)=O)CC2)c2c3c(sc2n1)CC(C(C)(C)C)CC3` (centres undefined), for which the AC50 was 6.76 µM.

As for `Cc1nc(-n2[nH]c3c(c2=O)CCCC3)[nH]c(=O)c1Cc1ccccc1`, the AC50 was 4.44 µM.

For `CC(=O)OCC(=O)[C@@]1(O)CC[C@H]2[C@@H]3CCC4=CC(=O)CC[C@]4(C)[C@H]3C(=O)C[C@@]21C`, the AC50 was 28.3 µM.

Take `CCN1C(=O)C(=Cc2cccc(OC)c2Oc2ccc([N+](=O)[O-])cc2[N+](=O)[O-])SC1=S`: the AC50 is 1.89 µM.

Consider `COc1ccc(C(NC(=O)c2cccnc2)c2cc(Cl)c3cccnc3c2O)cc1OC` (centres undefined), for which the half-maximal activity concentration (AC50) was 1.88 µM.

For `O=C(Nc1ccc(N2CCOCC2)cc1)c1ccc(Cl)c(S(=O)(=O)N2CCCCC2)c1`, the concentration at half-maximal activity (AC50) is 0.81 µM.

In the case of `O=[N+]([O-])c1cccc(S(=O)(=O)NCc2ccncc2)c1`, the AC50 is 3.09 µM.

For the compound `O=C(Cn1cc(C(=O)c2ccco2)c2ccccc21)Nc1ccccc1F`, the AC50 is 2.6 µM.

As to `O=C(Nc1cccc(-c2ccc(N3CCCCC3)nn2)c1)C(F)(F)F`, the AC50 is 9.07 µM.

`COc1ccc(-c2noc(CCCCC(=O)N3CCN(c4cc(C)ccc4C)CC3)n2)cc1`: the AC50 is 1.75 µM.

On to `COC(=O)C1=C(c2ccc(OCc3ccccc3)cc2)C[C@@H]2CC[C@H]1N2C(=O)NCCCCc1ccccc1`, for which the AC50 is 2.8 µM.

Regarding `COc1ccc(CNc2ncnc3c2[nH]c2ccccc23)cc1`, the AC50 was 4.19 µM.

Consider `CC[C@@H](C)[C@H](NC(=O)OC(C)(C)C)c1nnc(S(=O)(=O)Cc2cc(C)ccc2C)o1`, for which the AC50 is 5.77 µM.

In the case of `Cc1cc(S(=O)(=O)NCc2ccncc2)c(C)cc1Br`, the half-maximal activity concentration (AC50) is 1.23 µM.

Take `COc1ccc(C(=O)NC2CCCc3c2cnn3-c2cccc(C)c2C)c(OC)n1` (centres undefined): the AC50 is 1.96 µM.

With `COc1ccc(/C=C/C(=O)NC(=S)NNC(=O)c2cnccn2)cc1`, the AC50 was 15.5 µM.

As to `O=C(C(=Cc1ccccc1)CN1CCCCC1)c1ccccc1`, the AC50 is 3.18 µM.

`Cc1onc(-c2ccccc2Cl)c1C(=O)N1CCC(Cc2ccccc2)CC1`: the AC50 was 2.29 µM.

As to `COC(=O)c1ccc(NC(=O)c2nc(S(=O)(=O)Cc3cccc(C)c3)ncc2Cl)cc1`, the concentration at half-maximal activity (AC50) is 1.35 µM.

In the case of `Cc1nc([N+](=O)[O-])c(Br)n1CC(=O)c1ccc2ccccc2c1`, the AC50 is 10.7 µM.

The record behind these values is PubChem BioAssay AID743417 (Broad Institute, 2014).
